In patent publication US8247211B2, “Glycopeptide antibiotics” (American Cyanamid Company, priority 2001, dated 2012):
≈ marks a conversion by molar mass, not a printed value. One block for each compound: values may come before it.

Columns and labels:
Test in all cases: In vitro antibacterial evaluation: minimum inhibitory concentration (MIC), broth dilution method
Assay type in all cases: cell-based
[1] = test system: Staphylococcus sp.; conditions: 18 hours at 35° C.
Method in brief: (§1)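 Following NCCLS approved standard M7-A2, compounds are serially diluted from 64 to 0.06 μg/mL in Muller-Hinton II […] and inoculated at 5×10^5 CFU/mL; the MIC is the minimum concentration at which growth is inhibited.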

[2] = test system: Streptococcus sp.; conditions: 18 hours at 35° C.
Method in brief: as §1

[3] = test system: Enterococcus sp.; conditions: 18 hours at 35° C.
Method in brief: as §1

[4] = test system: Escherichia coli; conditions: Escherichia coli (GC 4560); 18 hours at 35° C.
Method in brief: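 NCCLS M7-A2 broth dilution with Mueller-Hinton II, testing 64-0.06 μg/mL antibiotic against 5×10^5 CFU/mL inocula. Test strains include recent methicillin-, penicillin- or vancomycin-resistant clinical isolates. MIC is the lowest concentration preventing growth.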

[5] = Streptococcus agalactiae (GC 4564)
[6] = Streptococcus pneumoniae (ATCC 6301)
[7] = Streptococcus pneumoniae (GC 1894)
[8] = Streptococcus pneumoniae (GC 4565)
[9] = Streptococcus pyogenes (GC 4563)
[10] = broth dilution, inoculum 5×10^5 CFU/mL

- MIC Coagulase Negative Staphylococcus (GC 4547) [1]: 64 µg/mL (≈ 43.7 µM)
- MIC Coagulase Negative Staphylococcus (GC 4548) [1]: 64 µg/mL (≈ 43.7 µM)
- MIC Coagulase Negative Staphylococcus (GC 4549) [1]: 64 µg/mL (≈ 43.7 µM)
- MIC Coagulase Negative Staphylococcus (GC 4551) [1]: 64 µg/mL (≈ 43.7 µM)
- MIC Coagulase Negative Staphylococcus (GC 6257) [1]: 32 µg/mL (≈ 21.8 µM)
- MIC Staphylococcus aureus (GC 4541) [1]: 64 µg/mL (≈ 43.7 µM)
- MIC Staphylococcus aureus-SMITH (GC 4543) [1]: 64 µg/mL (≈ 43.7 µM)
- MIC Streptococcus agalactiae (GC 4564) [2, 5]: 32 µg/mL (≈ 21.8 µM)
- MIC Streptococcus pneumoniae (ATCC 6301) [2, 6]: 32 µg/mL (≈ 21.8 µM)
- MIC Streptococcus pneumoniae (GC 1894) [2, 7]: 16 µg/mL (≈ 10.9 µM)
- MIC Streptococcus pneumoniae (GC 4565) [2, 8]: 32 µg/mL (≈ 21.8 µM)
- MIC Streptococcus pyogenes (GC 4563) [2, 9]: 64 µg/mL (≈ 43.7 µM)
- MIC Streptococcus agalactiae (GC 4564) [2, 10]: 32 µg/mL (≈ 21.8 µM)
- MIC Streptococcus pneumoniae (ATCC 6301) [2, 10]: 32 µg/mL (≈ 21.8 µM)
- MIC Streptococcus pneumoniae (GC 1894) [2, 10]: 16 µg/mL (≈ 10.9 µM)
- MIC Streptococcus pneumoniae (GC 4565) [2, 10]: 32 µg/mL (≈ 21.8 µM)
- MIC Streptococcus pyogenes (GC 4563) [2, 10]: 64 µg/mL (≈ 43.7 µM)
- MIC Enterococcus faecium (GC 4557) ([3]; Enterococcus faecium (GC 4557)): 32 µg/mL (≈ 21.8 µM)
- MIC Enterococcus faecium (GC 4557) [3, 10]: 32 µg/mL (≈ 21.8 µM)
- MIC Escherichia coli (GC 4560) [4]: 32 µg/mL (≈ 21.8 µM)
Structure (SMILES): COc1ccc2cc(COC3C(OC4C(CO)OC(Oc5ccc(CC6NC(=O)C(C(C)c7ccccc7)NC(=O)CNC(=O)C(CO)NC(=O)C(C(O)C7CNC(=N)N7C7OC(CO)C(O)C(O)C7O)NC(=O)C(C(O)C7CNC(=N)N7)NC6=O)cc5)C(O)C4O)OC(CO)C(O)C3O)ccc2c1 (stereo not drawn) [Example 230c, Cyclo[glycyl-β-methylphenylalanyl-O-[4-O-[2-O-[(6-methoxy-2-naphthyl)methyl]hexopyranosyl]hexopyranosyl]tyrosyl-3-(2-iminoimidazolidin-4-yl)seryl-3-(3-hexopyranosyl-2-iminoimidazolidin-4-yl)serylseryl]]
- MIC Staphylococcus haemolyticus (GC 4546) [1]: 64 µg/mL (≈ 43.7 µM)

- MIC Coagulase Negative Staphylococcus (GC 4547) [1]: 2 µg/mL (≈ 1.34 µM)
- MIC Coagulase Negative Staphylococcus (GC 4548) [1]: 0.5 µg/mL (≈ 0.335 µM)
- MIC Coagulase Negative Staphylococcus (GC 4549) [1]: 0.5 µg/mL (≈ 0.335 µM)
- MIC Coagulase Negative Staphylococcus (GC 4551) [1]: 1 µg/mL (≈ 0.67 µM)
- MIC Coagulase Negative Staphylococcus (GC 6257) [1]: 0.5 µg/mL (≈ 0.335 µM)
- MIC Staphylococcus aureus (ATCC 29213) ([1]; Staphylococcus aureus (ATCC 29213)): 1 µg/mL (≈ 0.67 µM)
- MIC Staphylococcus aureus (GC 1131) ([1]; Staphylococcus aureus (GC 1131)): 2 µg/mL (≈ 1.34 µM)
- MIC Staphylococcus aureus (GC 3051) ([1]; Staphylococcus aureus (GC 3051)): 2 µg/mL (≈ 1.34 µM)
- MIC Staphylococcus aureus (GC 3053) ([1]; Staphylococcus aureus (GC 3053)): 2 µg/mL (≈ 1.34 µM)
- MIC Staphylococcus aureus (GC 4541) [1]: 2 µg/mL (≈ 1.34 µM)
- MIC Staphylococcus aureus (GC 4542) ([1]; Staphylococcus aureus (GC 4542)): 2 µg/mL (≈ 1.34 µM)
- MIC Staphylococcus aureus (GC 4544) ([1]; Staphylococcus aureus (GC 4544)): 2 µg/mL (≈ 1.34 µM)
- MIC Staphylococcus aureus (GC 4545) ([1]; Staphylococcus aureus (GC 4545)): 2 µg/mL (≈ 1.34 µM)
- MIC Staphylococcus aureus-SMITH (GC 4543) [1]: 1 µg/mL (≈ 0.67 µM)
- MIC Streptococcus agalactiae (GC 4564) [2, 5]: <0.12 µg/mL
- MIC Streptococcus pneumoniae (ATCC 6301) [2, 6]: <0.12 µg/mL
- MIC Streptococcus pneumoniae (GC 1894) [2, 7]: <0.12 µg/mL
- MIC Streptococcus pneumoniae (GC 4565) [2, 8]: <0.12 µg/mL
- MIC Streptococcus pyogenes (GC 4563) [2, 9]: <0.12 µg/mL
- MIC Streptococcus agalactiae (GC 4564) [2, 10]: <0.12 µg/mL
- MIC Streptococcus pneumoniae (ATCC 6301) [2, 10]: <0.12 µg/mL
- MIC Streptococcus pneumoniae (GC 1894) [2, 10]: <0.12 µg/mL
- MIC Streptococcus pneumoniae (GC 4565) [2, 10]: <0.12 µg/mL
- MIC Streptococcus pyogenes (GC 4563) [2, 10]: <0.12 µg/mL
- MIC Enterococcus avium (GC 4558) ([3]; Enterococcus avium (GC 4558)): 4 µg/mL (≈ 2.68 µM)
- MIC Enterococcus faecalis (ATCC 29212) ([3]; Enterococcus faecalis (ATCC 29212)): 4 µg/mL (≈ 2.68 µM)
- MIC Enterococcus faecalis (GC 2242) ([3]; Enterococcus faecalis (GC 2242)): 4 µg/mL (≈ 2.68 µM)
- MIC Enterococcus faecalis (GC 2691) ([3]; Enterococcus faecalis (GC 2691)): 8 µg/mL (≈ 5.36 µM)
- MIC Enterococcus faecalis (GC 3059) ([3]; Enterococcus faecalis (GC 3059)): 4 µg/mL (≈ 2.68 µM)
- MIC Enterococcus faecalis (GC 4552) ([3]; Enterococcus faecalis (GC 4552)): 4 µg/mL (≈ 2.68 µM)
- MIC Enterococcus faecalis (GC 4553) ([3]; Enterococcus faecalis (GC 4553)): 4 µg/mL (≈ 2.68 µM)
- MIC Enterococcus faecalis (GC 4554) ([3]; Enterococcus faecalis (GC 4554)): 4 µg/mL (≈ 2.68 µM)
- MIC Enterococcus faecalis (GC 6189) ([3]; Enterococcus faecalis (GC 6189)): 4 µg/mL (≈ 2.68 µM)
- MIC Enterococcus faecium (GC 2243) ([3]; Enterococcus faecium (GC 2243)): 4 µg/mL (≈ 2.68 µM)
- MIC Enterococcus faecium (GC 4556) ([3]; Enterococcus faecium (GC 4556)): 4 µg/mL (≈ 2.68 µM)
- MIC Enterococcus faecium (GC 4557) ([3]; Enterococcus faecium (GC 4557)): 4 µg/mL (≈ 2.68 µM)
- MIC Enterococcus avium (GC 4558) [3, 10]: 4 µg/mL (≈ 2.68 µM)
- MIC Enterococcus faecalis (ATCC 29212) [3, 10]: 4 µg/mL (≈ 2.68 µM)
- MIC Enterococcus faecalis (GC 2242) [3, 10]: 4 µg/mL (≈ 2.68 µM)
- MIC Enterococcus faecalis (GC 2691) [3, 10]: 8 µg/mL (≈ 5.36 µM)
- MIC Enterococcus faecalis (GC 3059) [3, 10]: 4 µg/mL (≈ 2.68 µM)
- MIC Enterococcus faecalis (GC 4552) [3, 10]: 4 µg/mL (≈ 2.68 µM)
- MIC Enterococcus faecalis (GC 4553) [3, 10]: 4 µg/mL (≈ 2.68 µM)
- MIC Enterococcus faecalis (GC 4554) [3, 10]: 4 µg/mL (≈ 2.68 µM)
- MIC Enterococcus faecalis (GC 6189) [3, 10]: 4 µg/mL (≈ 2.68 µM)
- MIC Enterococcus faecium (GC 2243) [3, 10]: 4 µg/mL (≈ 2.68 µM)
- MIC Enterococcus faecium (GC 4556) [3, 10]: 4 µg/mL (≈ 2.68 µM)
- MIC Enterococcus faecium (GC 4557) [3, 10]: 4 µg/mL (≈ 2.68 µM)
- MIC Escherichia coli (GC 4560) [4]: 2 µg/mL (≈ 1.34 µM)
Structure (SMILES): CC(c1ccccc1)C1NC(=O)CNC(=O)C(CO)NC(=O)C(C(O)C2CNC(=N)N2C2OC(CO)C(O)C(O)C2O)NC(=O)C(C(O)C2CNC(=N)N2)NC(=O)C(Cc2ccc(OC3OC(CO)C(OC4OC(CO)C(O)C(OCc5ccc(OCc6ccccc6)cc5)C4O)C(O)C3O)cc2)NC1=O (centres unmarked) [Example 231c]
- MIC Staphylococcus haemolyticus (GC 4546) [1]: 1 µg/mL (≈ 0.67 µM)
